# Data published in patent US20250154127A1, “BICYCLIC HETEROARYL COMPOUNDS AND USES THEREOF” (ETERN BIOPHARMA (SHANGHAI) CO., LTD., priority 2022, published 2025).
# Assays:
# [1] = biological target: TEAD1(210-426) binding to YAP(50-100) (Homo sapiens, UniProt P28347); assay: TR-FRET Assay for TEAD1(210-426) Binding to YAP(50-100); details: His-TEAD 10 nM, YAP-Biotin peptide 50 nM
# How it was run: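 10 nM His-TEAD1 preincubated 30 min at room temperature with compound (3-fold dilutions, 12 points, 1% DMSO), then 50 nM biotin-YAP peptide added.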
# [2] = tested on: MSTO-211H cells; assay: Proliferation Assay (CellTiter-Glo Luminescent Cell Viability Assay); format: cell-based; details: Homo sapiens, 96 hours treatment
# How it was run: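 MSTO-211H cells, 1,500/well in RPMI 1640 with 10% FBS, plated overnight, then treated 96 h with 9-point 3-fold compound series in duplicate (DMSO below 0.5%). Viability by CellTiter-Glo luminescence; inhibition relative to DMSO wells, IC50 by four-parameter fit.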
# Sequence of TEAD1(210-426) binding to YAP(50-100) (P28347 209-426): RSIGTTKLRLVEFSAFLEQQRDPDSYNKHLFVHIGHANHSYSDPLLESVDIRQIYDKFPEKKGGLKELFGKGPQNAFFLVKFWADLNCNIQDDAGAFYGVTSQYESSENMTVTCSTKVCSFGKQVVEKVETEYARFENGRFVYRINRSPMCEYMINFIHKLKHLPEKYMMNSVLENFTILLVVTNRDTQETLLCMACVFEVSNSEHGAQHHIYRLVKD
SMILES,IC50 [1],IC50 [2]
"O=c1cc(-c2nn(-c3ccc(C(F)(F)F)cc3)c3ccccc23)ccn1Cc1cccnn1 [Compound 62, 1-(pyridazin-3-ylmethyl)-4-(1-(4-(trifluoromethyl)phenyl)-1H-indazol-3-yl)pyridin-2(1H)-one]",≤ 100 nM,≤ 1000 nM
"CNc1nccc(Cn2ccc(-c3nn(-c4ccc(C(F)(F)F)cc4)c4ncccc34)cc2=O)n1 [Compound 97, 1-((2-(methylamino)pyrimidin-4-yl)methyl)-4-(1-(4-(trifluoromethyl)phenyl)-1H-pyrazolo[3,4-b]pyridin-3-yl)pyridin-2(1H)-one]",≤ 100 nM,≤ 1000 nM
"Nc1nccc(Cn2ccc(-c3nn(-c4ccc(C(F)(F)F)cc4)c4ncccc34)cc2=O)n1 [Compound 109, 1-((2-aminopyrimidin-4-yl)methyl)-4-(1-(4-(trifluoromethyl)phenyl)-1H-pyrazolo[3,4-b]pyridin-3-yl)pyridin-2(1H)-one]",≤ 100 nM,≤ 1000 nM
"O=c1cc(-c2nn(-c3ccc(C(F)(F)F)cc3)c3ccccc23)ccn1Cc1nccc(N2CCOCC2)n1 [Compound 84, 1-((4-morpholinopyrimidin-2-yl)methyl)-4-(1-(4-(trifluoromethyl)phenyl)-1H-indazol-3-yl)pyridin-2(1H)-one]",≤ 100 nM,≤ 1000 nM
"O=c1cc(-c2nn(-c3ccc(C(F)(F)F)cc3)c3ncccc23)ccn1Cc1ccn(CCO)n1 [Compound 74, 1-((1-(2-hydroxyethyl)-1H-pyrazol-3-yl)methyl)-4-(1-(4-(trifluoromethyl)phenyl)-1H-pyrazolo[3,4-b]pyridin-3-yl)pyridin-2(1H)-one]",≤ 100 nM,≤ 1000 nM
"COCCOc1nccc(Cn2ccc(-c3nn(-c4ccc(C(F)(F)F)cc4)c4ccccc34)cc2=O)n1 [Compound 82, 1-((2-(2-methoxyethoxy)pyrimidin-4-yl)methyl)-4-(1-(4-(trifluoromethyl)phenyl)-1H-indazol-3-yl)pyridin-2(1H)-one]",≤ 100 nM,≤ 1000 nM
"COc1ccnc(Cn2ccc(-c3nn(-c4ccc(C(F)(F)F)cc4)c4ccccc34)cc2=O)n1 [Compound 68, 1-((4-methoxypyrimidin-2-yl)methyl)-4-(1-(4-(trifluoromethyl)phenyl)-1H-indazol-3-yl)pyridin-2(1H)-one]",≤ 100 nM,≤ 1000 nM
"COc1cccc(Cn2ccc(-c3nn(-c4ccc(C(F)(F)F)cc4)c4ccccc34)cc2=O)n1 [Compound 83, 1-((6-methoxypyridin-2-yl)methyl)-4-(1-(4-(trifluoromethyl)phenyl)-1 H-indazol-3-yl)pyridin-2(1H)-one]",≤ 100 nM,≤ 1000 nM
"O=c1cc(-c2nn(-c3ccc(C(F)(F)F)cc3)c3nccnc23)ccn1Cc1ccnc(NCCO)n1 [Compound 102, 1-((2-((2-hydroxyethyl)amino)pyrimidin-4-yl)methyl)-4-(1-(4-(trifluoromethyl)phenyl)-1H-pyrazolo[3,4-b]pyrazin-3-yl)pyridin-2(1H)-one]",≤ 100 nM,≤ 1000 nM
"CNc1ccnc(Cn2ccc(-c3nn(-c4ccc(C(F)(F)F)cc4)c4ccccc34)cc2=O)n1 [Compound 69, 1-((4-(methylamino)pyrimidin-2-yl)methyl)-4-(1-(4-(trifluoromethyl)phenyl)-1H-indazol-3-yl)pyridin-2(1H)-one]",≤ 100 nM,≤ 1000 nM
"CNc1nccc(Cn2ccc(-c3nn(-c4ccc(C(F)(F)F)cc4)c4ccccc34)cc2=O)c1F [Compound 67, 1-((3-fluoro-2-(methylamino)pyridin-4-yl)methyl)-4-(1-(4-(trifluoromethyl)phenyl)-1H-indazol-3-yl)pyridin-2(1H)-one]",≤ 100 nM,≤ 1000 nM
"O=c1cc(-c2nn(-c3ccc(C(F)(F)F)cc3)c3ccccc23)ccn1Cc1nccc(N2CC[C@H](O)C2)n1 [Compound 55, (S)-1-((4-(3-hydroxypyrrolidin-1-yl)pyrimidin-2-yl)methyl)-4-(1-(4-(trifluoromethyl)phenyl)-1H-indazol-3-yl)pyridin-2(1H)-one]",≤ 100 nM,≤ 1000 nM
"CNc1ccnc(Cn2ccc(-c3nn(-c4ccc(C(F)(F)F)cc4)c4ccc(F)cc34)cc2=O)n1 [Compound 54, 4-(5-fluoro-1-(4-(trifluoromethyl)phenyl)-1H-indazol-3-yl)-1-((4-(methylamino)pyrimidin-2-yl)methyl)pyridin-2(1H)-one]",≤ 100 nM,≤ 1000 nM
"O=c1cc(-n2nc(-c3ccc(C(F)(F)F)cc3)c3ncccc32)ccn1Cc1cccnc1 [Compound 120, 1-(pyridin-3-ylmethyl)-4-(3-(4-(trifluoromethyl)phenyl)-1H-pyrazolo[4,3-b]pyridin-1-yl)pyridin-2(1H)-one]",≤ 100 nM,≤ 1000 nM

# Now from value to compound, other results behind:
IC50 [1],SMILES,IC50 [2]
≤ 100 nM,"COCCNc1nccc(Cn2ccc(-c3nn(-c4ccc(OC(F)(F)F)cc4)c4c(F)cccc34)cc2=O)n1 [Compound 150, 4-(7-fluoro-1-(4-(trifluoromethoxy)phenyl)-1H-indazol-3-yl)-1-((2-((2-methoxyethyl)amino)pyrimidin-4-yl)methyl)pyridin-2(1H)-one]",≤ 1000 nM
≤ 100 nM,"O=c1cc(-n2nc(-c3ccc(C(F)(F)F)cc3)c3c(F)cccc32)ccn1Cc1ccnc(OCCO)n1 [Compound 136, 4-(4-fluoro-3-(4-(trifluoromethyl)phenyl)-1H-indazol-1-yl)-1-((2-(2-hydroxyethoxy)pyrimidin-4-yl)methyl)pyridin-2(1H)-one]",≤ 1000 nM
≤ 100 nM,"COCCOc1nccc(Cn2ccc(-n3nc(-c4ccc(C(F)(F)F)cc4)c4c(F)cccc43)cc2=O)n1 [Compound 137, 4-(4-fluoro-3-(4-(trifluoromethyl)phenyl)-1H-indazol-1-yl)-1-((2-(2-methoxyethoxy)pyrimidin-4-yl)methyl)pyridin-2(1H)-one]",≤ 1000 nM
100 to 1000 nM,"COCCN(C)c1nccc(Cn2ccc(-c3nn(-c4ccc(C(F)(F)F)cc4)c4cccc(F)c34)cc2=O)n1 [Compound 155, 4-(4-fluoro-1-(4-(trifluoromethyl)phenyl)-1H-indazol-3-yl)-1-((2-((2-methoxyethyl)(methyl)amino)pyrimidin-4-yl)methyl)pyridin-2(1H)-one]",≤ 1000 nM
≤ 100 nM,CNc1nccc(Cn2ccc(-c3nn(-c4ccc(C5COC5)cc4)c4c(F)cccc34)cc2=O)n1 [Compound 152],≤ 1000 nM
≤ 100 nM,"O=c1cc(-c2nn(-c3ccc(C(F)(F)F)cc3)c3ncccc23)ccn1Cc1ccnc(OCCO)n1 [Compound 126, 1-((2-(2-hydroxyethoxy)pyrimidin-4-yl)methyl)-4-(1-(4-(trifluoromethyl)phenyl)-1H-pyrazolo[3,4-b]pyridin-3-yl)pyridin-2(1H)-one]",≤ 1000 nM
